According to patent US20260176266A1, “PIPERIDINOPYRIMIDINE DERIVATIVE, PREPARATION METHOD THEREFOR AND USE THEREOF IN MEDICINE” (TUOJIE BIOTECH (SHANGHAI) CO., LTD., priority 2022, published 2026):

Key:
[1] = system: MDA-MB-468 breast cancer cells; assay: Inhibitory activity against tumor cells, CellTiter-Glo: MDA-MB-468; assay type: cell-based; settings: Homo sapiens, 120 h, MDA-MB-468, 5 days treatment
Protocol: (§1) MCF7 (ATCC #HTB-22) and T47D (ATCC #HTB-133) breast cancer cells and PANC-1 (ATCC #CRL-1469) pancreatic cancer cells were purchased from ATCC. MDA-MB-231 (Cobioer #CBP60382), HCC1806 (Cobioer #CBP60373), and MDA-MB-468 (Cobioer #CBP60387) breast cancer cells, HCT-116 (Cobioer #CBP60028) colorectal cancer cells, and OCI-AML-3 (Cobioer #CBP60817) and MV-4-11 (Cobioer #CBP60522) leukemia cells were purchased from Nanjing Cobioer Biosciences Co., Ltd.
(§2) OCI-AML-3 was cultured in RPMI 1640 medium with 20% FBS; HCC1806 and T47D were cultured in RPMI 1640 medium with 10% FBS; MCF7, MDA-MB-231, MDA-MB-468, and PANC-1 were cultured in DMEM medium with 10% FBS; MV-4-11 was cultured in IMDM medium with 20% FBS; HCT-116 was cultured in MC′5A medium with 10% FBS.
(§3) Palbociclib-resistant cells were constructed on MCF7 parent cells, designated MCF7 Palbo-R, and the culture conditions were consistent with those of the parent cells. All tumor cells were cultured in a cell incubator at 37° C. with 5% CO2. The cells were seeded at corresponding cell densities (600 cells/well for MDA-MB-231; 500 cells/well for MDA-MB-468, PANC-1, and HCT-116; 200 cells/well for MCF7 and HCC1806; 800 cells/well for MCF7 Palbo-R; 3000 cells/well for OCI-AML-3 and MV-4-11) in 384-well plates and cultured overnight in the incubator. On the second day, the cells were treated with compounds. The maximum compound concentration was 10 μM and was 3-fold diluted to obtain 9 concentrations, each tested in duplicate, and the final concentration of DMSO was 0.1%. The cells continued to be cultured in the incubator, with MDA-MB-231, PANC-1, MDA-MB-468, OCI-AML-3, and MV-4-11 being treated with drugs for 5 days and HCC1806, MCF7, MCF7 Palbo-R, and HCT116 being treated with drugs for 7 days. Cell viability was tested using the Celltiter Glo assay kit (Promega), and the testing method was consistent with the operational method provided by the kit. Readings were taken using an Envision multimode microplate reader. Data were processed using GraphPad Prism 8, and IC50 was calculated. […]

CDK1/CyclinB = CDK1/CyclinB (Homo sapiens, UniProt P06493); assay: ADP-Glo kinase assay, CDK1; assay type: biochemical; settings: 16.5 nM CDK1/CyclinB, 20 μM ATP (Km), Histone H1, 120 min; read-out: inhibitory activity (IC50, nM) CDK1
Chain of CDK1/CyclinB (P06493 whole entry, species assumed): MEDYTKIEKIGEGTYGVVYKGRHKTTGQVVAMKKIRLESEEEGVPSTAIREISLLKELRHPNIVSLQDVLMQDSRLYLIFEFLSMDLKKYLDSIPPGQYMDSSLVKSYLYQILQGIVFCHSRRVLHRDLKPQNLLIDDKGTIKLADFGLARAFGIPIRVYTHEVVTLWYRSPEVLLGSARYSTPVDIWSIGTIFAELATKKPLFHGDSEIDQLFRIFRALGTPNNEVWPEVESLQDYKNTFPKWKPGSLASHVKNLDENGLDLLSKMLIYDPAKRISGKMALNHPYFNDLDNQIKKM
Chain of CDK1/CyclinB (P14635 whole entry partner, species assumed): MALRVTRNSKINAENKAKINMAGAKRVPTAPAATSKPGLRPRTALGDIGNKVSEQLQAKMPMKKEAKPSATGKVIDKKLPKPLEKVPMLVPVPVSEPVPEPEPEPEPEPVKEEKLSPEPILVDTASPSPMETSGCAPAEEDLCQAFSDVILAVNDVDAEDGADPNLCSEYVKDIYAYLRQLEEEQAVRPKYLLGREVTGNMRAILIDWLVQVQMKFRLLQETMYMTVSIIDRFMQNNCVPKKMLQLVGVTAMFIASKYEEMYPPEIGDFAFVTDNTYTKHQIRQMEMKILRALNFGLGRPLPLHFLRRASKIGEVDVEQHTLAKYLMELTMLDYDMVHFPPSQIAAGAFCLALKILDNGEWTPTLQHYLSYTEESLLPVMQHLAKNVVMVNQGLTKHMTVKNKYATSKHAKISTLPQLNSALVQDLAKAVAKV
Protocol: (§4) The ADP-Glo kinase assay was used for testing the activity of CDKs. The compounds were diluted in 384-well plates using Echo. The starting concentration was 10 μM and was 3-fold diluted to obtain 10 concentration points, each tested in duplicate, and the final concentration of DMSO in the assay system was 1%. CDK solutions (the final concentrations were 16.5 nM CDK1/CyclinB, 1 nM CDK2/CyclinE1, 16.3 nM CDK4/CyclinD1, 11.5 nM CDK5/p25, 15.7 nM CDK6/CyclinD3, 80 nM CDK7/Cyclin H/MAT1, 15.3 nM CDK9/Cyclin T1, and 150 nM CDK12/CyclinK) prepared in assay buffer were added at 2.5 μL, and the enzymes and compounds were pre-incubated at room temperature for 10 min. ATP (the concentration was Km) & substrate solutions (20 μM ATP & 0.1 mg/mL Histone H1 Protein for CDK1/CyclinB, 15 μM ATP & 0.1 mg/mL Histone H1 Protein for CDK2/CyclinE1, 200 μM ATP & 0.2 mg/mL DYRKtide peptide for CDK4/CyclinD1, 10 μM ATP & 0.1 mg/mL Histone H1 Protein for CDK5/p25, 200 μM ATP & 0.1 mg/mL Histone H1 Protein for CDK6/CyclinD3, 70 μM ATP & 0.2 mg/mL MBP for CDK7/Cyclin H/MAT1, 60 μM ATP & 0.2 mg/mL PDKtide for CDK9/Cyclin T1, and 20 μM ATP & 80 μM pS7-CTD peptide for CDK12/CyclinK) prepared in assay buffer were added at 2.5 μL. […] Readings were taken using an Envision multimode microplate reader. Data were processed using GraphPad Prism 8, and IC50 was calculated. […]

MCF7 breast cancer cells = assay: Inhibitory activity against tumor cells, CellTiter-Glo: MCF7; assay type: cell-based; settings: Homo sapiens, 168 h, MCF7, 7 days treatment
Protocol: as §1, §2, §3

[2] = system: MCF7 Palbo-R (palbociclib-resistant cells constructed on MCF7); assay: Inhibitory activity against tumor cells, CellTiter-Glo: MCF7 Palbo-R; assay type: cell-based; settings: Homo sapiens, 168 h, 7 days treatment
Protocol: as §1, §2, §3

CDK5/p25 = CDK5/p25 (Homo sapiens, UniProt Q00535); assay: ADP-Glo kinase assay, CDK5; assay type: biochemical; settings: 11.5 nM CDK5/p25, 10 μM ATP (Km), Histone H1, 60 min; read-out: inhibitory activity (IC50, nM) CDK5
Chain of CDK5/p25 (Q00535 whole entry, species assumed): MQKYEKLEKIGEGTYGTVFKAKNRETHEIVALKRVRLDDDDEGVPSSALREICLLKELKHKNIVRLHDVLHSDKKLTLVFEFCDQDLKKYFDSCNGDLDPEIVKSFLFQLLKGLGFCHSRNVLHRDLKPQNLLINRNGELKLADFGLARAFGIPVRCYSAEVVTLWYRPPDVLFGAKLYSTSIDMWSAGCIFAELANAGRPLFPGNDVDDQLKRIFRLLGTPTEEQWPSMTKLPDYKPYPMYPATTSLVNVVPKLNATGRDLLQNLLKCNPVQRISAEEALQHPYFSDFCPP
Chain of CDK5/p25 (Q15078 99-307 partner limits assumed, species assumed): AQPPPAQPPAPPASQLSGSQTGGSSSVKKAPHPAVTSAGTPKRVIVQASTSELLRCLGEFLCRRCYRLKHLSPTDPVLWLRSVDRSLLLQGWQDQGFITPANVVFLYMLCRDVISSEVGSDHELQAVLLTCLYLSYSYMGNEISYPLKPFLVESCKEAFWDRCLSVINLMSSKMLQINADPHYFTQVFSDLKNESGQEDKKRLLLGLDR
Protocol: as §4

[3] = system: HCT-116 colorectal cancer cells; assay: Inhibitory activity against tumor cells, CellTiter-Glo: HCT-116; assay type: cell-based; settings: Homo sapiens, 168 h, HCT-116, 7 days treatment
Protocol: as §1, §2
Palbociclib-resistant cells were constructed on MCF7 parent cells, designated MCF7 Palbo-R, and the culture conditions were consistent with those of the parent cells. All tumor cells were cultured in a cell incubator at 37° C. with 5% CO2. The cells were seeded at corresponding cell densities (600 cells/well for MDA-MB-231; 500 cells/well for MDA-MB-468, PANC-1, and HCT-116; 200 cells/well for MCF7 and HCC1806; 800 cells/well for MCF7 Palbo-R; 3000 cells/well for OCI-AML-3 and MV-4-11) in 384-well plates and cultured overnight in the incubator. On the second day, the cells were treated with compounds. The maximum compound concentration was 10 μM and was 3-fold diluted to obtain 9 concentrations, each tested in duplicate, and the final concentration of DMSO was 0.1%. The cells continued to be cultured in the incubator, with MDA-MB-231, PANC-1, MDA-MB-468, OCI-AML-3, and MV-4-11 being treated with drugs for 5 days and HCC1806, MCF7, MCF7 Palbo-R, and HCT116 being treated with drugs for 7 days. Cell viability was tested using the Celltiter Glo assay kit (Promega), and the testing method was consistent with the operational method provided by the kit. Readings were taken using an Envision multimode microplate reader. Data were processed using GraphPad Prism 8, and IC50 was calculated.
Y=Bottom+(Top−Bottom)/(1+10^((Log IC50−X)×HillSlope)). Calculation formula: • X: the logarithm of the compound concentration; Y: % inhibition.

CDK9/Cyclin T1 = CDK9/Cyclin T1 (Homo sapiens, UniProt P50750); assay: ADP-Glo kinase assay, CDK9; assay type: biochemical; settings: 15.3 nM CDK9/Cyclin T1, 60 μM ATP (Km), PDKtide, 120 min; read-out: inhibitory activity (IC50, nM) CDK9
Chain of CDK9/Cyclin T1 (P50750 whole entry, species assumed): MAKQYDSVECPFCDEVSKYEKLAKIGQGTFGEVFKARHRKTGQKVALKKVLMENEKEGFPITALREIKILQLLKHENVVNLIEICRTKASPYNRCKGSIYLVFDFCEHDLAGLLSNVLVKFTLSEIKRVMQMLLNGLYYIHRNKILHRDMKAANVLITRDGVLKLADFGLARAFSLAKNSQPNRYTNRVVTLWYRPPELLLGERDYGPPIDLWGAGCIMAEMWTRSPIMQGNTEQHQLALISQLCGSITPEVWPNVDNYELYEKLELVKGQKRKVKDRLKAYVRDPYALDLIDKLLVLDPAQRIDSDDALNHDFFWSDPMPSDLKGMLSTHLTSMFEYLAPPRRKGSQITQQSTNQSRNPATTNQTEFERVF
Chain of CDK9/Cyclin T1 (O60563 whole entry partner, species assumed): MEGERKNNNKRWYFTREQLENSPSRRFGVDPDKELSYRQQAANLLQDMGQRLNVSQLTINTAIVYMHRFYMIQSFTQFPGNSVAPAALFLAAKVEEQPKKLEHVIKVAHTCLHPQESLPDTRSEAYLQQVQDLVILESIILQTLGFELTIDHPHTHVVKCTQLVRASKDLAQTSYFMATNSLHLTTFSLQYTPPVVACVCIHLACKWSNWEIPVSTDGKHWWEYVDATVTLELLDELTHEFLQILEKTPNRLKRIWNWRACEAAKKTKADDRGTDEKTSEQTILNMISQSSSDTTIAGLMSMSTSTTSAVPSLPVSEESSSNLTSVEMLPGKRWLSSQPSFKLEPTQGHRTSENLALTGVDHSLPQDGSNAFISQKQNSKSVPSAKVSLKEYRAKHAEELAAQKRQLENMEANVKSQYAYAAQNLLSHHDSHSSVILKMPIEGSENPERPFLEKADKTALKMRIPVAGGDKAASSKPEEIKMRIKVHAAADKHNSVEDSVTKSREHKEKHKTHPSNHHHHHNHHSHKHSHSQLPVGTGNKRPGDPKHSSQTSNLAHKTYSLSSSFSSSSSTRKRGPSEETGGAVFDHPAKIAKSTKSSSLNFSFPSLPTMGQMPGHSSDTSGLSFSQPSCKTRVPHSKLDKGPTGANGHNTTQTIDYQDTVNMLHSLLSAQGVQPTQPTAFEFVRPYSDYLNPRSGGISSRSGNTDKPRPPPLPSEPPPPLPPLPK
Protocol: as §4

[4] = system: MDA-MB-231 breast cancer cells; assay: Inhibitory activity against tumor cells, CellTiter-Glo: MDA-MB-231; assay type: cell-based; settings: Homo sapiens, 120 h, MDA-MB-231, 5 days treatment
Protocol: as §1, §2, §3

IC50 [1]	IC50 (CDK1/CyclinB)	IC50 (MCF7 breast cancer cells)	IC50 [2]	IC50 (CDK5/p25)	IC50 [3]	IC50 (CDK9/Cyclin T1)	IC50 [4]	SMILES
0.0213 µM	> 10000 nM	0.0118 µM	0.0246 µM	6420 nM	0.0469 µM	4270 nM	0.0232 µM	C[C@H](Nc1ncc2c(n1)CN(C(=O)N[C@H](CN(C)C)c1ccccc1)[C@H](C)C2)c1ccccn1 [Example 6, (R)—N—((S)-2-(Dimethylamino)-1-phenylethyl)-6-methyl-2-(((S)-1-(pyridin-2-yl)ethyl)amino)-5,8-dihydropyrido[3,4-d]pyrimidine-7(6H)-carboxamide]
0.03 µM	> 10000 nM	0.0146 µM	0.0406 µM	6310 nM	0.0756 µM	1580 nM	0.0254 µM	C[C@@H]1Cc2cnc(NCc3ccn(C)n3)nc2CN1C(=O)N[C@H](CN(C)C)c1ccccc1 [Example 2, (R)—N—((S)-2-(Dimethylamino)-1-phenylethyl)-6-methyl-2-(((1-methyl-TH-pyrazol-3-yl)methyl)amino)-5,8-dihydropyrido[3,4-d]pyrimidine-7(6H)-carboxamide]
